pEC50: −log10 of the molar value. Where a name gives a salt, the structure may show the parent alone.

The test system of data set [1] is Human immunodeficiency virus 1. Briefly: Antiviral activity against HIV-1. It is filed as functional, organism-based.
Data set [2] can be described thus: Selectivity index, ratio of CC50 for human MT-4 cells to EC50 for HIV-1 infected in MT-4 cells. In kind it is toxicity, cell-based. The following applies: read-out: Ratio CC50/EC50.
Data set [3] can be described thus: Cytotoxicity against human HepG2-hNTCP cells incubated for 3 days by XTT assay. It is filed as cell-based. The following applies: time 3 day.
Data set [4] is described as follows: Drug uptake in human CCRF-CEM cells assessed as intracellular intact prodrug level at 50 uM after 45 mins by ECHO-MS analysis. It is filed as ADME, cell-based. The following applies: 0.75 h.
The test system of data set [5] is Human immunodeficiency virus 1. Briefly: Antiviral activity against HIV-1 infected in MT4 cells assessed as reduction in virus-induced cytopathic effect preincubated for 1 hr followed by viral infection and measured after 5 days by XTT assay. It is filed as functional, organism-based. The following applies: Human immunodeficiency virus 1, MT4. Background: Cytopathic effects are the visible damage that an infection or toxin causes in cultured cells.

A short description of data set [6]: Cytotoxicity against in human MT4 cells after 5 days by XTT assay. The following applies: time 5 day. In kind it is cell-based.
For data set [7], the system named is Hepatitis B virus. Briefly: Antiviral activity against HBV infected in human HepG2-hNTCP cells assessed as reduction in HBV DNA incubated for day 1 followed by compound washout and fresh compound addition on following day and day 3, 6 and 10 measured on day 14 post infection by qPCR analysis. It is filed as functional, organism-based. Background: In qPCR the cycle at which signal appears reflects the starting amount.

Data set [8] can be described thus: Drug uptake in human CCRF-CEM cells assessed as released tenofovir level at 50 uM after 45 mins by ECHO-MS analysis. In kind it is ADME, cell-based. The following applies: 0.75 h.
Data set [9] has as its target T1, Lysosomal protective protein (Homo sapiens) (UniProt P10619).
T1 sequence (whole entry): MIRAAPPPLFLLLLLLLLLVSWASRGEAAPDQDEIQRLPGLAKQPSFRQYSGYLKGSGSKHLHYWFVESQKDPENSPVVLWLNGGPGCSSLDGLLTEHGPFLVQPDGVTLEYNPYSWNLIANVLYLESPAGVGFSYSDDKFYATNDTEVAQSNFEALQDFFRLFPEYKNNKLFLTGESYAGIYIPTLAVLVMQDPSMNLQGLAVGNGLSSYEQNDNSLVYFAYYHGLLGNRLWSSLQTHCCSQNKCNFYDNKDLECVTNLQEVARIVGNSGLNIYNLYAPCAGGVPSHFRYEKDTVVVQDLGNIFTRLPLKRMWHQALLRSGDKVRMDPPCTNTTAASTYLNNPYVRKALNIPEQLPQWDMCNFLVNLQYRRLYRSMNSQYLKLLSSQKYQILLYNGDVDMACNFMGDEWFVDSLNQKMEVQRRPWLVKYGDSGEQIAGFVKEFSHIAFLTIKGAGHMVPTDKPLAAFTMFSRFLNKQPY
Briefly: Substrate activity at cathepsin A (unknown origin) at 30 uM after 30 mins.

Data set [10] in a line: Stability of compound in pooled human hepatic microsomes assessed as compound remaining at 5 uM measured upto 30 mins in presence of NADPH by ECHO-MS analysis. The following applies: pooled liver microsomes, read-out: Stability. It is filed as ADME, Microsome.
Data set [11] in a line: Stability of compound in pooled human plasma assessed as compound remaining at 5 uM measured for 120 to 240 mins by ECHO-MS analysis. It is filed as ADME, cell-free. Conditions: time 120-240 min, read-out: Stability.
A short description of data set [12]: Stability of compound in pooled human plasma assessed as half life at 5 uM measured for 120 to 240 mins by ECHO-MS analysis. It is filed as ADME, cell-free. Conditions: time 120-240 min.
Data set [13] can be described thus: Solubility of compound in water at 25 uM after 24 hrs by HPLC analysis. It is filed as physicochemical.

What is called pEC50 is the EC50 on a negative log10 scale, so that one unit is a factor of ten. With `C[C@H](Cn1cnc2c(N)ncnc21)OCP(=O)(O)O` [TENOFOVIR ANHYDROUS], the pEC50 in data set [1] was 5.30. Moreover, the selectivity ratio in [2] was 36.

In general, CC50 refers to the concentration giving 50% cytotoxicity. In data set [3], `CC(C)OC(=O)[C@H](C)N[P@@](=O)(CO[C@H](C)Cn1cnc2c(N)ncnc21)Oc1ccc(C[C@H](NC(=O)OCc2ccccc2)C(=O)CC2CCCC2)cc1` came in with a CC50 at 72 h greater than 50 µM. The results for the Drug uptake in data set [4] and in data set [8] were 248 pmol and 78.88 pmol, respectively. The pEC50 in data set [5] was 9.82; in [7], 8.47. The same molecule yielded a 50% cytotoxic concentration (CC50) at 120 h in data set [6] of 7.6 µM. This molecule had an Activity in data set [9] of 30.3 pmol/min/mg.

As for `CC(C)OC(=O)[C@H](C)N[P@](=O)(CO[C@H](C)Cn1cnc2c(N)ncnc21)Oc1ccc(C[C@H](NCCCc2ccccc2)C(=O)CC2CCCC2)cc1`, the Drug uptake is given as 11.37 pmol in [4] and 304.5 pmol in data set [8]. Moreover, the pEC50 in data set [5] was 10.22. The CC50 at 120 h in [6] is 48 µM. Further, the remaining at 0.5 h, 5 µM in data set [10] was 1%. The selectivity ratio in [2] came out at 800000. For the same molecule, in [11], the remaining at 5 µM came to 77%. In data set [9], the Activity came to 16.3 pmol/min/mg.

Usually half-life stands for the time needed for the level to fall by half in the phase considered. `CC(C)OC(=O)[C@H](C)N[P@@](=O)(CO[C@H](C)Cn1cnc2c(N)ncnc21)Oc1ccc(C[C@H](NC(=O)OCc2ccccc2)C(=O)OC2CCCC2)cc1`: the values for the Drug uptake in [4] and in [8] were 0.22 pmol and 20.25 pmol, respectively. The pEC50 in data set [5] is 7.80. The molecule further gave a CC50 at 120 h in data set [6] of 17 µM. For the same molecule, the remaining at 0.5 h, 5 µM in data set [10] was 0.01%. The half-life at 5 µM in [12] came out at 277 min. In [11], the remaining at 5 µM amounted to 56%. Also, in data set [9], the Activity was found to be 35.9 pmol/min/mg.

Turning to `CC(C)OC(=O)[C@H](C)N[P@](=O)(CO[C@H](C)Cn1cnc2c(N)ncnc21)Oc1ccc(C[C@H](NC(=O)OCc2ccccc2)C(=O)NC2CCCC2)cc1`, in data set [5], the pEC50 was 7.89. In data set [6], this molecule gave a 50% cytotoxic concentration (CC50) at 120 h of 28 µM. Also, the selectivity ratio in [2] turned out to be 2150.

In the case of `CC(C)OC(=O)[C@H](C)N[P@](=O)(CO[C@H](C)Cn1cnc2c(N)ncnc21)Oc1ccc(C[C@H](NC(=O)OCc2ccccc2)C(=O)OC(C)C)cc1`, in data set [5], the pEC50 is 9.22. It took 10 µM to reach half-maximal cytotoxicity in data set [6] (CC50 at 120 h). Also, the selectivity ratio in data set [2] is 16700.

By solubility is commonly meant how much of the substance goes into solution per volume. A higher solubility goes with much dissolved substance. Molecule `CC(C)OC(=O)[C@H](C)N[P@](=O)(CO[C@H](C)Cn1cnc2c(N)ncnc21)Oc1ccc(C[C@H](NC(=O)OCc2ccccc2)C(=O)OC2CCCC2)cc1.Cl` showed a solubility at 24 h, 25 µM in data set [13] of 210 µM.

In turn, `CC(C)OC(=O)[C@H](C)N[P@](=O)(CO[C@H](C)Cn1cnc2c(N)ncnc21)Oc1ccc(C[C@H](NC(=O)OCc2ccccc2)C(=O)CC2CCCC2)cc1` gave a CC50 at 72 h in data set [3] greater than 50 µM. Moreover, the Drug uptake in [4] turned out to be 102.36 pmol; in [8], 148.09 pmol. The pEC50 is 11.22 in data set [5] and 8.55 in data set [7]. Moreover, the CC50 at 120 h in data set [6] came out at 9.2 µM. In addition, the remaining at 0.5 h, 5 µM in data set [10] was found to be 0.04%. The selectivity ratio in data set [2] was determined as 1.53e+06. The remaining at 5 µM in data set [11] was determined as 88%. The same molecule had an Activity in data set [9] of 39.7 pmol/min/mg.

For the molecule `CC(C)OC(=O)[C@H](C)N[P@](=O)(CO[C@H](C)Cn1cnc2c(N)ncnc21)Oc1ccc(C[C@H](NC(=O)CCc2ccccc2)C(=O)OC2CCCC2)cc1`, the CC50 at 72 h in data set [3] was greater than 50 µM. Besides, the Drug uptake in data set [4] was found to be 0.37 pmol; in data set [8] it was 64.26 pmol. Moreover, the results for the pEC50 in [5] and in [7] were 11.00 and 8.36, respectively. Also, the cytotoxic concentration (CC50) at 120 h in data set [6] came out at 8.8 µM. For the same molecule, the remaining at 0.5 h, 5 µM in data set [10] amounted to 0.01%. In addition, the selectivity ratio in [2] was 880000. In addition, in data set [11], the remaining at 5 µM was found to be 76%. The molecule also came in with an Activity in data set [9] of 26 pmol/min/mg.

Molecule `CC(C)OC(=O)OCOP(=O)(CO[C@H](C)Cn1cnc2c(N)ncnc21)OCOC(=O)OC(C)C` [TENOFOVIR DISOPROXIL FUMARATE] showed a pEC50 in data set [1] of 7.30. Also, the selectivity ratio in data set [2] turned out to be 656.

The molecule `CC(C)OC(=O)[C@H](C)N[P@](=O)(CO[C@H](C)Cn1cnc2c(N)ncnc21)Oc1ccc(C[C@H](NC(=O)OCc2ccccc2)C(=O)OC2CCCC2)cc1.O=C(O)/C=C/C(=O)O` gave a solubility at 24 h, 25 µM in data set [13] of 104 µM.

`CC(C)OC(=O)[C@H](C)N[P@](=O)(CO[C@H](C)Cn1cnc2c(N)ncnc21)Oc1ccc(C[C@H](NCCCc2ccccc2)C(=O)OC2CCCC2)cc1`: the CC50 at 72 h in data set [3] is greater than 50 µM. Also, the pEC50 in data set [5] was 9.55; in data set [7], 7.72. The same molecule returned a CC50 at 120 h in data set [6] of 6 µM. Besides, the selectivity ratio in data set [2] is 21400.

Consider `CC(C)CCOC(=O)[C@H](Cc1ccc(O[P@@](=O)(CO[C@H](C)Cn2cnc3c(N)ncnc32)N[C@@H](C)C(=O)OC(C)C)cc1)NC(=O)OCc1ccccc1`, for which the negative logarithm of the EC50 (pEC50) in [5] was 9.25. In data set [6], this molecule had a CC50 at 120 h of 8 µM. Besides, the selectivity ratio in [2] came out at 14300.

In data set [9], `CC(C)OC(=O)[C@H](C)N[P@](=O)(CO[C@H](C)Cn1cnc2c(N)ncnc21)Oc1ccc(C[C@H](NC(=O)OCc2ccccc2)C(=O)OC2CCCC2)cc1` registered an Activity of 33.6 pmol/min/mg.

The molecule `CC(C)OC(=O)[C@H](C)N[P@](=O)(CO[C@H](C)Cn1cnc2c(N)ncnc21)Oc1ccccc1.CC(C)OC(=O)[C@H](C)N[P@](=O)(CO[C@H](C)Cn1cnc2c(N)ncnc21)Oc1ccccc1.O=C(O)/C=C/C(=O)O` [TENOFOVIR ALAFENAMIDE FUMARATE] came in with a CC50 at 72 h in [3] greater than 50 µM. In addition, the values for the Drug uptake in [4] and in data set [8] were 0.3 pmol and 21.19 pmol, respectively. The pEC50 in data set [5] was 8.19; in data set [7], 8.28; in [1], 8.30. The molecule also gave a CC50 at 120 h in [6] of 35 µM. In addition, in data set [10], the remaining at 0.5 h, 5 µM is 70%. Moreover, in data set [2], the selectivity ratio came to 5470. In addition, the half-life at 5 µM in [12] was 207 min. Also, the solubility at 24 h, 25 µM in [13] was greater than 1000 µM. Further, in [11], the remaining at 5 µM amounted to 44%. In addition, the Activity in data set [9] stood at 25.8 pmol/min/mg.

`CC(C)OC(=O)[C@H](C)N[P@@](=O)(CO[C@H](C)Cn1cnc2c(N)ncnc21)Oc1ccc(C[C@H](NC(=O)CCc2ccccc2)C(=O)OC2CCCC2)cc1` displayed a CC50 at 72 h in data set [3] greater than 50 µM. Also, the Drug uptake in data set [4] is 0.12 pmol; in [8] it was 27.89 pmol. The results for the pEC50 in data set [5] and in data set [7] were 9.44 and 8.85, respectively. Besides, the half-maximal cytotoxic concentration (CC50) at 120 h in data set [6] was found to be 11 µM. Also, the Activity in [9] turned out to be 29.5 pmol/min/mg.

In data set [3], `CCCCCCOC(=O)[C@H](Cc1ccc(OP(=O)(CO[C@H](C)Cn2cnc3c(N)ncnc32)N[C@@H](C)C(=O)OC(C)C)cc1)NC(=O)OCc1ccccc1` (stereo partly specified) gave a CC50 at 72 h greater than 50 µM. For the same molecule, the pEC50 is 8.74 in data set [5] and 8.85 in data set [7]. The CC50 at 120 h in [6] turned out to be 8.4 µM.

With `CC(C)OC(=O)[C@H](C)N[P@@](=O)(CO[C@H](C)Cn1cnc2c(N)ncnc21)Oc1ccc(C[C@@H](NC(=O)OCc2ccccc2)C(=O)OC2CCCC2)cc1`, the pEC50 in data set [5] is 9.48. The molecule further came in with a CC50 at 120 h in [6] of 15 µM. The selectivity ratio in [2] is 45500.

(Values after ChEMBL document CHEMBL4840358, “Discovery of Modified Amidate (ProTide) Prodrugs of Tenofovir with Enhanced Antiviral Properties” (J Med Chem, 2021).)
